Columns and labels:
barnyardgrass = experiment: Test C flooded paddy test; assay type: in vivo, Echinochloa crus-galli; conditions: Flood
Method in brief: (§1)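 Test compounds are applied straight into paddy water held 3 cm above the soil surface, with that flood maintained for the whole test. After 13 to 15 days in the greenhouse, each species is scored visually relative to controls.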

[1] = tested on: common (oilseed) sunflower; experiment: Test C pre-/postemergence test; assay type: in vivo, Helianthus annuus
Method in brief: (§2)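 Compounds in a non-phytotoxic solvent with surfactant applied preemergence to seeded pots and, at the same time, postemergence to plants 2–18 cm tall (1- to 4-leaf stage). Paddy tests: pots flooded to 3 cm, compound applied into the water, depth held throughout.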

kochia = experiment: Test C pre-/postemergence test; assay type: in vivo, Kochia scoparia
Method in brief: as §2

duck salad = experiment: Test C flooded paddy test; assay type: in vivo, Heteranthera limosa; conditions: Flood
Method in brief: as §1

blackgrass = experiment: Test C pre-/postemergence test; assay type: in vivo, Alopecurus myosuroides
Method in brief: as §2

wild oat = experiment: Test C pre-/postemergence test; assay type: in vivo, Avena fatua
Method in brief: as §2

redroot pigweed = experiment: Test A pre-/postemergence greenhouse test; assay type: in vivo, Amaranthus retroflexus; conditions: for Plant response rating, Pigweed: 0 to 100 scale where 0 is no effect and 100 is complete control; for Pigweed plant response rating: 0 to 100 scale
Method in brief: (§3)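 Pots of loam–sand soil sown with the test species are sprayed preemergence on the soil surface; emerged seedlings (1–2 leaves, 2–10 cm) are sprayed postemergence at the same time. The vehicle is a non-phytotoxic solvent mixture with surfactant. Injury is scored visually after ~10 d in greenhouse.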

velvetleaf = experiment: Test C pre-/postemergence test; assay type: in vivo, Abutilon theophrasti
Method in brief: as §2

eastern black nightshade = experiment: Test C pre-/postemergence test; assay type: in vivo, Solanum ptycanthum; conditions: for Plant response rating, Nightshade: 31 g ai/ha, scale 0 to 100 (0 no effect, 100 complete control)
Method in brief: as §2

crabgrass = experiment: Test C pre-/postemergence test; assay type: in vivo, Digitaria sanguinalis
Method in brief: as §2

bermudagrass = experiment: Test C pre-/postemergence test; assay type: in vivo, Cynodon dactylon
Method in brief: as §2

rice = experiment: Test C flooded paddy test; assay type: in vivo, Oryza sativa; conditions: Flood
Method in brief: as §1

pigweed = experiment: Test C pre-/postemergence test; assay type: in vivo, Amaranthus retroflexus
Method in brief: as §2

wheat = experiment: Test C pre-/postemergence test; assay type: in vivo, Triticum aestivum
Method in brief: as §2

corn = experiment: Test A pre-/postemergence greenhouse test; assay type: in vivo, Zea mays; conditions: for Plant response rating, Corn: 0 to 100 scale where 0 is no effect and 100 is complete control; for Corn plant response rating: 0 to 100 scale
Method in brief: as §3

Surinam grass = experiment: Test C pre-/postemergence test; assay type: in vivo, Brachiaria decumbens
Method in brief: as §2

catchweed bedstraw = experiment: Test C pre-/postemergence test; assay type: in vivo, Galium aparine; conditions: for Plant response rating, Galium: 31 g ai/ha, scale 0 to 100 (0 no effect, 100 complete control)
Method in brief: as §2

[2] = 62 g ai/ha, scale 0 to 100 (0 no effect, 100 complete control)
[3] = 250 g ai/ha, scale 0 to 100, 0 no effect, 100 complete control, 13 to 15 days
[4] = 62 g ai/ha, Preemergence, scale 0 to 100
[5] = 125 g ai/ha, preemergence, scale 0 (no effect) to 100 (complete control)
[6] = Preemergence, 31 g ai/ha, scale 0 to 100 (0 no effect, 100 complete control)
[7] = preemergence, 250 g ai/ha, scale 0 (no effect) to 100 (complete control)
[8] = Postemergence, 62 g ai/ha, scale 0 to 100, 0 no effect, 100 complete control
[9] = Postemergence, 125 g ai/ha, scale 0 to 100, 0 no effect, 100 complete control
[10] = Postemergence, 250 g ai/ha, scale 0 to 100, 0 no effect, 100 complete control
[11] = Postemergence, 500 g ai/ha, 0 is no effect, 100 is complete control
[12] = Preemergence, 125 g ai/ha, 0 no effect, 100 complete control
[13] = 62 g ai/ha, Preemergence, scale 0 to 100 (0 no effect, 100 complete control)
[14] = 31 g ai/ha, scale 0 to 100 (0 no effect, 100 complete control)
[15] = 62 g ai/ha, scale 0 to 100, 0 no effect, 100 complete control, 13 to 15 days
[16] = 125 g ai/ha, scale 0 to 100, 0 no effect, 100 complete control, 13 to 15 days
[17] = preemergence, 125 g ai/ha, scale 0 (no effect) to 100 (complete control)
[18] = Postemergence, 125 g ai/ha, 0 is no effect, 100 is complete control

Cn1nc(C(F)(F)F)c(C[S+]([O-])c2ccc(Cl)c[n+]2[O-])c1OCC(F)(F)F (racemic) [Compound 62]
85: Plant response rating, Kochia (kochia; [6]) | Plant response rating, Ducksalad (duck salad; [3]) | Oat, Wild plant response rating (wild oat; [4])
50: Plant response rating, Sunflower [1, 6] | Plant response rating, Oat, Wild (wild oat; [10]) | Plant response rating, Crabgrass, Large (crabgrass; [10]) | Plant response rating, Corn (corn; Postemergence, 125 g ai/ha)
90: Kochia plant response rating (kochia; [4]) | Plant response rating, Blackgrass (blackgrass; [6]) | Velvetleaf plant response rating (velvetleaf; [4]) | Plant response rating, Rice (rice; [3]) | Plant response rating, Corn (corn; Preemergence, 500 g ai/ha)
98: Blackgrass plant response rating (blackgrass; [4]) | Surinam Grass plant response rating (Surinam grass; [4])
60: Plant response rating, Blackgrass (blackgrass; [9]) | Plant response rating, Pigweed (redroot pigweed; Postemergence, 125 g ai/ha) | Plant response rating, Crabgrass, Large (crabgrass; [6]) | Plant response rating, Rice (rice; [2]) | Plant response rating, Wheat (wheat; [10]) | Plant response rating, Surinam Grass (Surinam grass; [10])
80: Sunflower plant response rating [1, 5] | Sunflower plant response rating [1, 7] | Plant response rating, Blackgrass (blackgrass; [10]) | Pigweed plant response rating (redroot pigweed; [11]) | Crabgrass, Large plant response rating (crabgrass; [4]) | Plant response rating, Pigweed (pigweed; [6]) | Wheat plant response rating (wheat; [5]) | Corn plant response rating (corn; [12]) | Plant response rating, Surinam Grass (Surinam grass; [6])
10: Plant response rating, Kochia (kochia; [10]) | Plant response rating (0 to 100), Wheat (wheat; Postemergence, 62 g ai/ha)
95: Oat, Wild plant response rating (wild oat; [5]) | Wheat plant response rating (wheat; [7])
100: Kochia plant response rating (kochia; [5]) | Kochia plant response rating (kochia; [7]) | Blackgrass plant response rating (blackgrass; [5]) | Blackgrass plant response rating (blackgrass; [7]) | Oat, Wild plant response rating (wild oat; [7]) | Pigweed plant response rating (redroot pigweed; [12]) | Plant response rating, Pigweed (redroot pigweed; Preemergence, 500 g ai/ha) | Velvetleaf plant response rating (velvetleaf; [5]) | Velvetleaf plant response rating (velvetleaf; [7]) | Nightshade plant response rating (eastern black nightshade; [4]) | Nightshade plant response rating (eastern black nightshade; [5]) | Plant response rating, Nightshade (eastern black nightshade; Preemergence) | Nightshade plant response rating (eastern black nightshade; [7]) | Crabgrass, Large plant response rating (crabgrass; [5]) | Crabgrass, Large plant response rating (crabgrass; [7]) | Bermudagrass plant response rating (bermudagrass; [13]) | Bermudagrass plant response rating (bermudagrass; [5]) | Plant response rating, Bermudagrass (bermudagrass; [6]) | Bermudagrass plant response rating (bermudagrass; [7]) | Pigweed plant response rating (pigweed; [4]) | Pigweed plant response rating (pigweed; [5]) | Pigweed plant response rating (pigweed; [7]) | Surinam Grass plant response rating (Surinam grass; [5]) | Surinam Grass plant response rating (Surinam grass; [7]) | Galium plant response rating (catchweed bedstraw; [4]) | Galium plant response rating (catchweed bedstraw; [5]) | Plant response rating, Galium (catchweed bedstraw; Preemergence) | Galium plant response rating (catchweed bedstraw; [7])
35: Plant response rating, Bermudagrass (bermudagrass; [10])
0: Plant response rating (0 to 100), Kochia (kochia; Postemergence, 31 g ai/ha) | Plant response rating, Kochia (kochia; [8]) | Plant response rating, Kochia (kochia; [9]) | Plant response rating (0 to 100), Oat, Wild (wild oat; Postemergence, 31 g ai/ha) | Plant response rating, Oat, Wild (wild oat; [8]) | Plant response rating (0 to 100), Velvetleaf (velvetleaf; Postemergence, 31 g ai/ha) | Plant response rating (0 to 100), Velvetleaf (velvetleaf; Postemergence, 62 g ai/ha) | Plant response rating (0 to 100), Crabgrass, Large (crabgrass; Postemergence, 31 g ai/ha) | Plant response rating, Crabgrass, Large (crabgrass; [8]) | Plant response rating, Crabgrass, Large (crabgrass; [9]) | Plant response rating (0 to 100), Bermudagrass (bermudagrass; Postemergence, 31 g ai/ha) | Plant response rating, Bermudagrass (bermudagrass; [8]) | Plant response rating (0 to 100), Pigweed (pigweed; Postemergence, 31 g ai/ha) | Plant response rating (0 to 100), Pigweed (pigweed; Postemergence, 62 g ai/ha) | Plant response rating, Pigweed (pigweed; [9]) | Plant response rating (0 to 100), Wheat (wheat; Postemergence, 31 g ai/ha) | Plant response rating (0 to 100), Surinam Grass (Surinam grass; Postemergence, 31 g ai/ha) | Plant response rating (0 to 100), Surinam Grass (Surinam grass; Postemergence, 62 g ai/ha) | Plant response rating, Surinam Grass (Surinam grass; [9])
70: Plant response rating, Barnyardgrass (barnyardgrass; [3]) | Plant response rating, Ducksalad (duck salad; [2]) | Plant response rating, Oat, Wild (wild oat; [6]) | Corn plant response rating (corn; [11])
55: Wheat plant response rating (wheat; [4]) | Plant response rating, Wheat (wheat; [9])
5: Plant response rating, Velvetleaf (velvetleaf; [9]) | Plant response rating, Pigweed (pigweed; [10])
30: Plant response rating, Barnyardgrass (barnyardgrass; [2]) | Plant response rating, Oat, Wild (wild oat; [9]) | Plant response rating, Bermudagrass (bermudagrass; [9])
75: Sunflower plant response rating [1, 4]
40: Plant response rating (0 to 100), Blackgrass (blackgrass; Postemergence, 31 g ai/ha) | Plant response rating, Blackgrass (blackgrass; [8]) | Plant response rating, Velvetleaf (velvetleaf; [10]) | Plant response rating, Velvetleaf (velvetleaf; [6]) | Plant response rating, Wheat (wheat; [6])

CC(c1c(C(F)(F)F)nn(C)c1OCC(F)(F)F)S(=O)(=O)c1cccc[n+]1[O-] (racemic) [Compound 33]
80: Plant response rating, Barnyardgrass (barnyardgrass; [3]) | Plant response rating, Blackgrass (blackgrass; [6]) | Plant response rating, Corn (corn; Preemergence, 500 g ai/ha) | Plant response rating, Surinam Grass (Surinam grass; [6])
70: Plant response rating, Nightshade (eastern black nightshade; Preemergence) | Corn plant response rating (corn; [11]) | Corn plant response rating (corn; [12])
0: Sunflower plant response rating [1, 4] | Plant response rating, Ducksalad (duck salad; [14]) | Plant response rating, Ducksalad (duck salad; [15]) | Plant response rating, Rice (rice; [14]) | Plant response rating, Rice (rice; [15])
30: Plant response rating, Barnyardgrass (barnyardgrass; [14]) | Plant response rating, Barnyardgrass (barnyardgrass; [15]) | Plant response rating, Barnyardgrass (barnyardgrass; [16]) | Plant response rating, Rice (rice; [16]) | Plant response rating, Wheat (wheat; [6])
50: Plant response rating, Oat, Wild (wild oat; [6]) | Wheat plant response rating (wheat; [4]) | Corn plant response rating (corn; [18])
45: Plant response rating, Ducksalad (duck salad; [16])
90: Pigweed plant response rating (redroot pigweed; [11])
85: Blackgrass plant response rating (blackgrass; [4]) | Nightshade plant response rating (eastern black nightshade; [4])
75: Plant response rating, Rice (rice; [3])
65: Oat, Wild plant response rating (wild oat; [4])
95: Plant response rating, Ducksalad (duck salad; [3])
100: Kochia plant response rating (kochia; [4]) | Plant response rating, Kochia (kochia; [6]) | Plant response rating (0 to 100), Blackgrass (blackgrass; Preemergence, 250 g ai/ha) | Blackgrass plant response rating (blackgrass; [17]) | Pigweed plant response rating (redroot pigweed; [12]) | Plant response rating, Pigweed (redroot pigweed; Preemergence, 500 g ai/ha) | Velvetleaf plant response rating (velvetleaf; [4]) | Plant response rating, Velvetleaf (velvetleaf; [6]) | Crabgrass, Large plant response rating (crabgrass; [4]) | Plant response rating, Crabgrass, Large (crabgrass; [6]) | Plant response rating (0 to 100), Crabgrass, Large (crabgrass; Preemergence, 250 g ai/ha) | Bermudagrass plant response rating (bermudagrass; [13]) | Plant response rating, Bermudagrass (bermudagrass; [6]) | Plant response rating (0 to 100), Bermudagrass (bermudagrass; Preemergence, 250 g ai/ha) | Bermudagrass plant response rating (bermudagrass; [17]) | Pigweed plant response rating (pigweed; [4]) | Plant response rating, Pigweed (pigweed; [6]) | Surinam Grass plant response rating (Surinam grass; [4]) | Galium plant response rating (catchweed bedstraw; [4]) | Plant response rating, Galium (catchweed bedstraw; Preemergence) | Plant response rating (0 to 100), Galium (catchweed bedstraw; Preemergence, 250 g ai/ha)
60: Pigweed plant response rating (redroot pigweed; [18])
